Results from patent publication US8217065B2, “Organic compounds” (Novartis AG, priority 2007, dated 2012).
pIC50: −log10 of the molar value.

Target: T1, human DGAT1 (Homo sapiens, UniProt O75907)
T1 construct: (His)6; made in house; host or cells: Sf9 insect cells (membrane preparation)
T1 sequence (O75907 1-488): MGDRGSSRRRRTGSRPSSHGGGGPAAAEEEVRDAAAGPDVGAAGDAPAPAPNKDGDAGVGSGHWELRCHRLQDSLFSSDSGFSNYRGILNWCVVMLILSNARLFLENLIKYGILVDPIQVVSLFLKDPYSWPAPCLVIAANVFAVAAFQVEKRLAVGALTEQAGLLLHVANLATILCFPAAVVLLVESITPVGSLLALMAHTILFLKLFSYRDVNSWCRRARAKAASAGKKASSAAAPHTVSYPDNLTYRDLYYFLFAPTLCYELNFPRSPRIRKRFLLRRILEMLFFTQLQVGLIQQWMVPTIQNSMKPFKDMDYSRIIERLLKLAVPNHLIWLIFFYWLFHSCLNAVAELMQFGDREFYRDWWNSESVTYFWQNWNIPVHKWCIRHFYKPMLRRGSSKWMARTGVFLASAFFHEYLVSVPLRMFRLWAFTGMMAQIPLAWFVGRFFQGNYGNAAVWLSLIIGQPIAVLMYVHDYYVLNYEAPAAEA
Test: DGAT1 enzyme inhibition assay (Sf9 membrane preparation, LC/MS/MS readout)
Assay type: biochemical
Conditions: membrane preparation from Sf9 cells overexpressing human (His)6DGAT1; 10-point, 3-fold dose response; read-out: IC50 (inhibitory activity to human DGAT1)
Experimental: The enzyme preparation used in this assay is a membrane preparation from Sf9 cells overexpressing human (His)6DGAT1. During all steps samples were chilled to 4° C. Sf9 cells expressing human (His)6DGAT1 were thawed at RT and re-suspended at a 10:1 ratio (mL buffer/g of cells) in 50 mM HEPES, 1× Complete Protease Inhibitor, pH 7.5. The re-suspended pellet was homogenized for 1 min using a Brinkman PT 10/35 homogenizer with a 20 mm generator. Cells were lysed using Avestin Emulsiflex (chilled to 4° C.) at 10000-15000 psi. Lysate was centrifuged at 100,000×g for 1 h at 4° C. Supernatant was removed and pellets were re-suspended in 50 mM HEPES, 1× Complete Protease Inhibitor, pH 7.5 at ⅙ the volume of supernatant. Re-suspended pellets were pooled and homogenized with 10 strokes of a Glas-Col motor driven teflon pestle on setting 70. The protein concentration of the membrane preparation was quantified using BCA protein assay with 1% SDS. The membrane preparation was aliquoted, frozen on dry ice, and stored at −80° C.
For 50 mL, 25 mL of 0.2 M HEPES stock buffer, 0.5 mL of 1 M MgCl2 (5 mM final concentration), and 24.5 mL of milli-Q H20 are added to the 55 mL Wheaton Potter-Elvehjem homogenizer. Enzyme preparation (0.1 mL) is added to buffer and the mixture is homogenized with 5 strokes on ice using the Glas-Col variable speed homogenizer system on setting 70.
For 50 mL, 0.5 mL 10 mM diolein is added to 9.5 mL of EtOH in a 50 mL Falcon screw cap conical centrifuge tube. Five mL of 10 mM sodium acetate pH 4.5 is added followed by 0.5 mL of 10 mM oleoyl-CoA. Finally, the remaining 4.5 mL of 10 mM sodium acetate pH 4.5 is added followed by 30 mL of milli-Q H2O. The solution should be gently agitated by hand to induce mixing. The final concentrations of EtOH and sodium acetate are 20% and 2 mM, respectively.
Dry compounds are dissolved in the appropriate volume of DMSO to a final concentration of 10 mM. A 10-point, 3-fold dose response is used to evaluate compound potency. All dilutions are performed in DMSO in a Greiner 384-well microplate. • 1. 2 μL of compound in DMSO is added to the appropriate wells. 2 μL of DMSO is added to 100% activity and 100% inhibition controls. • 2. 25 μL of enzyme mix is added to all wells and plate(s) are incubated for 10 min at RT. • 3. 10 μL of 20% acetic acid quench is added to 100% inhibition control wells. Plate(s) are vortexed using Troemner multi-tube vortexer (setting 7 for 10 sec). • 4. 25 μL of substrate mix is added to all wells. Plate(s) are vortexed using Troemner multi-tube vortexer (setting 7 for 10 sec). Plate(s) are incubated for 30 min at RT. • 5. 10 μL of 20% acetic acid quench is added to all wells. Plate(s) are vortexed using Troemner multi-tube vortexer (setting 7 for 10 sec). • 6. 50 μL of 1-butanol w/ glyceryl tripalmitoleate internal standard is added to all wells. • 7. Plate(s) are sealed with super pierce strong plate sealer using the thermo-sealer.
8. Plate(s) are vortexed using Troemner multi-tube vortexer (setting 10 for 5 min). • 9. Plate(s) are centrifuged at 162×g (1000 rpm for GH-3.8 rotor) for 5 min using Beckman GS-6R tabletop centrifuge.
Samples were analyzed by LC/MS/MS using a Waters 1525μ LC and Quattro Micro API MS. Where indicated, tripalmitolein was used as an internal standard to control for instrument variation.
Data is converted to % inhibition prior to curve fitting using the following equation: […]

pIC50 | Structure (SMILES)
< 5.00 | Clc1cccc(Cl)c1-c1nc2ccc(-c3nc(-c4ccccc4)c(-c4ccccc4)o3)cc2[nH]1 [Example 1-24, 2-(2,6-Dichloro-phenyl)-6-(4,5-diphenyl-oxazol-2-yl)-1H -benzoimidazole]
6.40 | Clc1cccc(Cl)c1-c1nc2ccc(-c3nnc(Nc4cccnc4)o3)cc2[nH]1 [Example 1-29, {5-[2-(2,6-Dichloro-phenyl)-3H-benzoimidazol-5-yl]-[1,3,4]oxadiazol-2-yl}-pyridin-3-yl-amine]
7.27 | Cc1ccc(Nc2nnc(-c3ccc4nc(-c5c(Cl)cccc5Cl)[nH]c4c3)o2)cn1 [Example 1-38, {5-[2-(2,6-Dichloro-phenyl)-3H-benzoimidazol-5-yl]-[1,3,4]oxadiazol-2-yl}-(6-methyl-pyridin-3-yl)-amine]
5.33 | Cc1nc(-c2ccc3nc(-c4c(Cl)cccc4Cl)[nH]c3c2)oc1-c1ccc(Cl)cc1 [Example 1-25, 6-[5-(4-Chlorophenyl)-4-methyl-oxazol-2-yl]-2-(2,6-dichlorophenyl)-1H-benzoimidazole]
7.10 | Clc1cc(Nc2nnc(-c3ccc4nc(-c5c(Cl)cccc5Cl)[nH]c4c3)o2)ccn1 [Example 1-43, (2-Chloro-pyridin-4-yl)-{5-[2-(2,6-dichloro-phenyl)-3H-benzoimidazol-5-yl]-[1,3,4]oxadiazol-2-yl}-amine]
8.05 | Cc1cc(CCC(=O)O)cc(C)c1-c1nc2ccc(-c3nnc(Nc4cccc(Cl)c4)o3)cc2[nH]1 [Example 1-59, 3-(4-{6-[5-(3-Chlorophenylamino)-[1,3,4]oxadiazol-2-yl]-1H-benzoimidazol-2-yl}-3,5-dimethylphenyl)-propionic acid]
< 5.00 | Clc1cccc(Cl)c1-c1nc2ccc(-c3nnc(N4CCCC4)o3)cc2[nH]1 [Example 1-34, 2-(2,6-Dichloro-phenyl)-6-(5-pyrrolidin-1-yl-[1,3,4]oxadiazol-2-yl)-1H-benzoimidazole]
5.64 | Cc1cncc(-c2nnc(-c3ccc4nc(-c5c(Cl)cccc5Cl)[nH]c4c3)o2)c1 [Example 1-15, 2-(2,6-Dichloro-phenyl)-6-[5-(5-methyl-pyridin-3-yl)-[1,3,4]oxadiazol-2-yl]-1H-benzoimidazole]
7.82 | COc1ccc(-c2nnc(-c3ccc4nc(-c5c(C)cc(CC(C)(C)C(=O)O)cc5C)[nH]c4c3)o2)cc1 [Example 1-62, 3-(4-{5-[5-(4-Methoxy-phenyl)-[1,3,4]oxadiazol-2-yl]-1H-benzoimidazol-2-yl}-3,5-dimethyl-phenyl)-2,2-dimethyl-propionic acid]
6.51 | N#Cc1cccc(Nc2nnc(-c3ccc4nc(-c5c(Cl)cccc5Cl)[nH]c4c3)o2)c1 [Example 1-51, 3-{5-[2-(2,6-Dichloro-phenyl)-3H-benzoimidazol-5-yl]-[1,3,4]oxadiazol-2-ylamino}-benzonitrile]
